{"source": "patent US8389679B2", "about": "“Targeted antimicrobial moieties” (priority 2009, dated 2013)", "note": "Entries after “also recorded” stand apart in the source; their conditions may differ."}
{"system": "target microorganisms", "experiment": "Screen of synthesized peptides for binding to target microorganisms (targeting peptides, Tables 2 and 3)", "settings": "microorganism(s) the targeting peptide was identified as binding to (Table 3)", "description": "Once noted, these peptides were batch synthesized on a multiplex peptide synthesizer, yielding 5-10 mg of each peptide that could readily be screened for biological activity (e.g., binding activity and/or antimicrobial activity.\nOther suitable targeting peptides include the peptides that have been identified as binding to particular target organisms as shown in Table 3 and/or Table 4."}
{"substance": "1T-136 (ELLTQIRLALLYSVNEW; synthetic novel tartgeting peptide IT-136)", "Target(s)": "A. naeslundii, F. nucleatum,; also recorded: P. gingivalis,; also recorded: S. epidermidis, S. gordonii,; also recorded: S. mitis, S. mutans,; also recorded: S. oralis, S. salivarious,; also recorded: S. sanguinis"}
{"substance": "1T-36 (VYRHLRFIDGKLVEIRLERK; synthetic novel tartgeting peptide IT-36)", "Target(s)": "S. aureus; also recorded: S. epidermidis; also recorded: C. jeikeium; also recorded: C. xerosis; also recorded: C. striatum; also recorded: P. aeruginosa"}
{"substance": "1T-41 (KRGSKIVIAIAVVLIVLAGVWVW; synthetic novel tartgeting peptide IT-41)", "Target(s)": "S. mutans; also recorded: S. aureus; also recorded: S. epidermidis; also recorded: C. jeikeium; also recorded: C. striatum; also recorded: P. aeruginosa"}
{"substance": "1T-63 (EPLILKELVRNLFLFCYARALR; synthetic novel tartgeting peptide IT-63)", "Target(s)": "S. aureus; also recorded: S. epidermidis; also recorded: C. jeikeium; also recorded: C. xerosis; also recorded: C. striatum; also recorded: P. aeruginosa"}
{"substance": "1T-163 (MENILIYIPMVLSPFGSGILLFLGKDRRYML; synthetic novel tartgeting peptide IT-163)", "Target(s)": "A. naeslundii, F. nucleatum,; also recorded: P. gingivalis; also recorded: S. epidermidis,; also recorded: S. gordonii, S. mitis, S. mutans,; also recorded: S. oralis, S. salivarious,; also recorded: S. sanguinis"}
{"substance": "1T-4 (LDAYGELVGGN; synthetic novel tartgeting peptide IT-4)", "Target(s)": "S. mutans; also recorded: S. gordonii; also recorded: S. sanguinis; also recorded: S. oralis; also recorded: V. atypica; also recorded: L. casei"}
{"substance": "1T-79 (FGTPWSITNFWKKNFNDRPDFDSDRRRY; synthetic novel tartgeting peptide IT-79)", "Target(s)": "S. pneumoniae"}
{"substance": "1T-58 (CDDLHALERAGKLDALLSA; synthetic novel tartgeting peptide IT-58)", "Target(s)": "P. aeruginosa"}
{"substance": "1T-31 (NATGTDIGEVTLTLGRFS; synthetic novel tartgeting peptide IT-31)", "Target(s)": "S. mutans; also recorded: P. aeruginosa"}
{"substance": "1T-166 (AQSAGQIKRKSKVRIHV; synthetic novel tartgeting peptide IT-166)", "Target(s)": "A. naeslundii, F. nucleatum,; also recorded: P. gingivalis; also recorded: S. epidermidis,; also recorded: S. gordonii, S. mitis, S. mutans,; also recorded: S. oralis, S. salivarious,; also recorded: S. sanguinis"}
{"substance": "1T-32 (VSFLAGWLCLGLAAWRLGNA; synthetic novel tartgeting peptide IT-32)", "Target(s)": "S. mutans"}
{"substance": "1T-130 (QKIIDMSKFLFSLILFIMIVVIYIGKSIGGYSAIVSSIMLELDTVLYNKKIFFIYK; synthetic novel tartgeting peptide IT-130)", "Target(s)": "A. naeslundii, F. nucleatum,; also recorded: P. gingivalis; also recorded: S. epidermidis,; also recorded: S. gordonii, S. mitis, S. mutans,; also recorded: S. oralis, S. salivarious,; also recorded: S. sanguinis"}
{"substance": "1T-121 (FAKETGFGIGGAQEGWWIIADIYGPNPF; synthetic novel tartgeting peptide IT-121)", "Target(s)": "S. gordonii, S. mitis, S. mutans,; also recorded: S. oralis, S. salivarious,; also recorded: S. sanguinis"}
{"substance": "1T-148 (IVELDDTTILERALSMLGEANA; synthetic novel tartgeting peptide IT-148)", "Target(s)": "A. naeslundii, F. nucleatum,; also recorded: P. gingivalis,; also recorded: T. denticolaS. gordonii,; also recorded: S. mitis, S. mutans, S. oralis,; also recorded: S. salivarious, S. sanguinis"}
{"substance": "1T-48 (KLQVHHGRATHTLLLQPPLCAPGTIR; synthetic novel tartgeting peptide IT-48)", "Target(s)": "S. aureus; also recorded: S. epidermidis; also recorded: C. jeikeium; also recorded: C. xerosis; also recorded: C. striatum; also recorded: P. aeruginosa"}
{"substance": "1T-29 (GSVIKKRRKRMSKKKHRKMLRRTRVQRRKLGK; synthetic novel tartgeting peptide IT-29)", "Target(s)": "S. mutans; also recorded: S. aureus; also recorded: S. epidermidis; also recorded: C. jeikeium; also recorded: C. xerosis; also recorded: C. striatum; also recorded: P. aeruginosa"}
{"substance": "1T-107 (SPVPRFTAVGGVSRGSP; synthetic novel tartgeting peptide IT-107)", "Target(s)": "A. naeslundiiS. epidermidis,; also recorded: S. gordonii,; also recorded: S. mitis, S. mutans, S. oralis,; also recorded: S. salivarious, S. sanguinis"}
{"substance": "1T-34 (AFWLNILLTLLGYIPGIVHAVYIIAKR; synthetic novel tartgeting peptide IT-34)", "Target(s)": "S. aureus; also recorded: S. epidermidis; also recorded: C. jeikeium; also recorded: C. xerosis; also recorded: C. striatum; also recorded: P. aeruginosa"}
{"substance": "1T-66 (DTDCLSRAYAQRIDELDKQYAGIDKPL; synthetic novel tartgeting peptide IT-66)", "Target(s)": "S. mutans; also recorded: S. aureus; also recorded: S. epidermidis; also recorded: C. jeikeium; also recorded: C. xerosis; also recorded: C. striatum; also recorded: P. aeruginosa"}
{"substance": "1T-40 (QRVSLWSEVEHEFR; synthetic novel tartgeting peptide IT-40)", "Target(s)": "S. mutans; also recorded: P. aeruginosa"}
{"substance": "1T-162 (QKAKEESDRKAAVSYNGFHRVNVVSIPK; synthetic novel tartgeting peptide IT-162)", "Target(s)": "A. naeslundii, F. nucleatum,; also recorded: P. gingivalis,; also recorded: T. denticolaS. gordonii,; also recorded: S. mitis, S. mutans, S. oralis,; also recorded: S. salivarious, S. sanguinis"}
{"substance": "1T-117 (GPGVVGPAPFSRLPAHALNL; synthetic novel tartgeting peptide IT-117)", "Target(s)": "S. mutans"}
{"substance": "1T-25 (VGLDVSVLVLFFGLQLLSVLLGAMIR; synthetic novel tartgeting peptide IT-25)", "Target(s)": "S. aureus; also recorded: S. epidermidis; also recorded: C. xerosis; also recorded: C. striatum; also recorded: P. aeruginosa"}
{"substance": "1T-33 (VRTLTILVIFIFNYLKSISYKLKQPFENNLAQSMISI; synthetic novel tartgeting peptide IT-33)", "Target(s)": "S. aureus; also recorded: S. epidermidis; also recorded: C. jeikeium; also recorded: C. xerosis; also recorded: C. striatum; also recorded: P. aeruginosa"}
{"substance": "1T-85 (VMASLTWRMRAASASLPTHSRTDA; synthetic novel tartgeting peptide IT-85)", "Target(s)": "A. naeslundii, F. nucleatum,; also recorded: P. gingivalis; also recorded: S. epidermidis,; also recorded: S. gordonii, S. mitis, S. mutans,; also recorded: S. oralis, S. salivarious,; also recorded: S. sanguinis"}
{"substance": "1T-151 (SVRAVKPIDEIVAWHFPGDFIVN; synthetic novel tartgeting peptide IT-151)", "Target(s)": "A. naeslundii, F. nucleatum,; also recorded: P. gingivalis,; also recorded: T. denticolaS. gordonii,; also recorded: S. mitis, S. mutans, S. oralis,; also recorded: S. salivarious, S. sanguinis"}
{"substance": "1T-158 (WENKPSPLGSIKKLQGLVYRLIGYRHFWV; synthetic novel tartgeting peptide IT-158)", "Target(s)": "A. naeslundii, F. nucleatum,; also recorded: P. gingivalis; also recorded: S. epidermidis,; also recorded: S. gordonii, S. mitis, S. mutans,; also recorded: S. oralis, S. salivarious,; also recorded: S. sanguinis"}
{"substance": "1T-55 (NHKTLKEWKAKWGPEAVESWATLLG; synthetic novel tartgeting peptide IT-55)", "Target(s)": "C. xerosis; also recorded: P. aeruginosa"}
{"substance": "1T-7 (SQRIIEPVKSPQPYPGFSVS; synthetic novel tartgeting peptide IT-7)", "Target(s)": "Myxococcus xanthus"}
{"substance": "1T-12 (FGNIFKGLKDVIETIVKWTAAK; synthetic novel tartgeting peptide IT-12)", "Target(s)": "Corynebacterium; also recorded: xerosis; also recorded: striatum; also recorded: S. epidermidis; also recorded: S. mutans"}
{"substance": "1T-57 (RLEYRRLETQVEENPESGRRPMRG; synthetic novel tartgeting peptide IT-57)", "Target(s)": "P. aeruginosa"}
{"substance": "1T-147 (GVENRRFYERDVSKVSMMTSEAVAPRGGSK; synthetic novel tartgeting peptide IT-147)", "Target(s)": "A. naeslundii, F. nucleatum,; also recorded: P. gingivalis,; also recorded: T. denticolaS. gordonii,; also recorded: S. mitis, S. mutans, S. oralis,; also recorded: S. salivarious, S. sanguinis"}
{"substance": "1T-52 (DEYPAKLPLSDKGATEPRRH; synthetic novel tartgeting peptide IT-52)", "Target(s)": "S. aureus; also recorded: C. xerosis; also recorded: P. aeruginosa"}
{"substance": "1T-159 (IFSLHHFALICSEMGTFAVSKRAKYKWEVL; synthetic novel tartgeting peptide IT-159)", "Target(s)": "P. gingivalis"}
{"substance": "1T-131 (DEVWKMLGI; synthetic novel tartgeting peptide IT-131)", "Target(s)": "A. naeslundii, F. nucleatum,; also recorded: P. gingivalis,; also recorded: T. denticolaS. gordonii,; also recorded: S. mitis, S. mutans, S. oralis,; also recorded: S. salivarious, S. sanguinis"}
{"substance": "1T-94 (DQVAHSGDMLVQARRRDS; synthetic novel tartgeting peptide IT-94)", "Target(s)": "S. mitis, S. mutans, S. oralis"}
{"substance": "1T-23 (PALVDLSNKEAVWAVLDDHS; synthetic novel tartgeting peptide IT-23)", "Target(s)": "S. mutans; also recorded: P. aeruginosa"}
{"substance": "1T-123 (LVRRNAVAGRSDGLAGAEQLDLVRLQGVL; synthetic novel tartgeting peptide IT-123)", "Target(s)": "S. gordonii"}
{"substance": "1T-73 (GWWEELLHETILSKFKITKALELPIQL; synthetic novel tartgeting peptide IT-73)", "Target(s)": "Streptococcus; also recorded: pneumoniae"}
{"substance": "1T-160 (AQYKYINKLLN; synthetic novel tartgeting peptide IT-160)", "Target(s)": "A. naeslundii, F. nucleatum,; also recorded: P. gingivalis,; also recorded: T. denticolaS. gordonii,; also recorded: S. mitis, S. mutans, S. oralis,; also recorded: S. salivarious, S. sanguinis"}
